From US10946053B2, “Composition containing mixed extract of mulberry and Poria cocos bark for preventing, improving or treating neurodegenerative disorders” (NeuroBo Pharmaceuticals, Inc., priority 2014, dated 2021) come the findings set out here.

The structures appear in SMILES notation.

Test [1] deals with Scopolamine Induced Memory Impairment Model. Description: Novel object recognition (NOR) task, scopolamine model. The test is classed as in vivo, ICR mice. To be noted: extracts 100 mg/kg, Donepezil 1 mg/kg, test session. As for the experimental part:
(§1) Six-week-old ICR mice were used for the experiment and each experimental group consisted of 8 animals.
(§2) Normal animals were injected with the same amount of physiological saline. Behavioral studies were performed after 30 minutes of scopolamine administration.
(§3) The lyophilized drug, comparative drug and control drug were suspended in 3% HPMC aqueous solution, and all the drugs were prepared on the day of the experiment.
(§4) Inside a black box of 45 cm width, 45 cm length, 50 cm height, two plastic objects of the same size but different shapes were placed. The experimental animals were allowed to move freely for 8 minutes and the time spent on each object was measured (training session) 24 hours later, the experimental animals were placed in a box with one familiar object and one new object in the training session and the time spent in each object was measured (test session). The recorded values were calculated using the following equation (2), which is expressed as a recognition result of a new object. Recognition rate of new objects (%)=Time spent on new objects/(Time spent on new objects+Time spent on experienced objects)×100 [Equation 2]

The next test deals with human Tau [pS199]. Description: Phosphorylated tau in neuronal cell line (ELISA), Aβ42 treated. The following applies: Donepezil 10 μM. Format: cell-based. The method, then: Phosphorylated tau levels were measured in order to confirm the inhibitory effect of crude herbal extracts on tau hyper-phosphorylation. […] The phosphorylated tau was measured using human Tau [pS199] enzyme-linked immunosorbent assay (ELISA) KIT purchased from Invitrogen.
For orientation: ELISA stands for enzyme-linked immunosorbent assay.

Test [2] concerns Scopolamine Induced Memory Impairment Model. Description: Passive avoidance task, scopolamine induced memory impairment model. Format: in vivo, ICR mice. To be noted: scopolamine 1 mg/kg i.p., oral, extracts 100 mg/kg, Donepezil 1 mg/kg. As for the experimental part:
as §1, §2, §3
Passive avoidance experiments were performed in two independently separated bright and dark square boxes. Bright areas (20×20×20 cm) were illuminated with 50 W incandescent lamps. Light and dark areas (20×20×20 cm) were spaced 1 cm apart and 2 mm stainless steel rods were installed.
In the habituation phase, the two sections were separated by a guillotine door (5×5 cm), and the guillotine door was opened after 30 seconds after placing the experimental animals in the light section. The animals were allowed to freely navigate. When they reached the dark area, the guillotine door was closed and the animals were taken out after 3 seconds.
(§5) Acquisition trials were conducted 24 hours later. […] The time that the animals entered the dark zone was measured.
(§6) After performing the acquisition trials and giving a 24-hour rest period, the experimental animals were placed in a bright area for measuring the retention trial and the time until entering the dark area was measured. […]

Test [3] shares this test system. Nature of the test: Y-maze test, scopolamine model. The following applies: extracts 100 mg/kg, Donepezil 1 mg/kg. Format: in vivo, ICR mice. The method, then:
as §1, §2, §3
(§7) The Y-maze experiment was conducted to investigate the effect of short-term memory. The animals were placed on one arm of the Y-maze and allowed to move freely for 8 minutes. Spontaneous alternation and total number of entries were measured. When the animals were consecutively entered into three arms, they were defined as alternation entry, and the ratio was calculated by the following equation 1. Spontaneous alternation ratio (%)=[(number of changes)/(total number of arm entry−2)]×100 [Equation 1]

In test [4] the test system is Aβ Infusion Model (Aβ42). Description: Novel object recognition (NOR) task, Aβ42 administration model. The test is classed as in vivo, ICR mice. To be noted: extracts 100 mg/kg, Donepezil 1 mg/kg. The method, then: as §3, §4
The test system of test [5] is Aβ Infusion Model (Aβ42). Description: Y-maze test, Aβ42 administration model. The test is classed as in vivo, ICR mice. To be noted: extracts 100 mg/kg, Donepezil 1 mg/kg. The method, then:
(§8) Six-week-old ICR mice were used in the experiment. The animals were anesthetized, fixed in a stereotaxic apparatus (Stoelting) and injected with 3 μl of vehicle (artificial CSF) or Aβ42 for 6 minutes using a Hamilton micro syringe (fitted with a 26-gauge needle).
(§9) Animals treated with Aβ42 were randomly divided into experimental groups. From 2 days after administration of Aβ42, the experimental drug and the positive control drug were administered once a day for 11 days.
as §3, §7

The subject of a further test is beta-nerve growth factor. Nature of the test: NGF level measurement in nerve cell line (ELISA). To be noted: extracts 10 μg/ml, Donepezil 10 μM. Format: cell-based, human. As for the experimental part: NGF levels were measured in order to determine the mechanism of cognitive improvement of the herbal mixed extracts. […] NGF levels were measured using a beta-nerve growth factor human enzyme-linked immunosorbent assay (ELISA) KIT purchased from Abcam.

Test [6] relates to NeuN, a neural cell marker. Description: Immunohistochemical staining with NeuN in hippocampus, Aβ infusion model (FIG. 1). Format: in vivo, ICR mice. As for the experimental part:
as §8, §9
For immunohistochemical staining, the Aβ infusion animal described in Experimental Example 1-1 was perfused with 1×PBS (phosphate buffered saline), fixed with 4% paraformaldehyde, and brain was extracted. This was fixed in the same solution for one day and stored in a 30% sucrose solution and the solution was changed every two days until frozen at […] After that, brain tissue was frozen sufficiently at −20° C. by dropping OCT (optimal cutting temperature) compound in a cryostat, and then made into a 30 μm-thick section, and stored at 4° C. in a preservative solution. Immunohistochemical staining was performed with the hippocampus portion. […]

Test [7] concerns Aβ Infusion Model (Aβ42). Nature of the test: Passive avoidance task, Aβ42 administration model. To be noted: Aβ42 injected, once a day for 11 days, extracts 100 mg/kg, Donepezil 1 mg/kg. The test is classed as in vivo, ICR mice. As for the experimental part: as §8, §9, §3
Passive avoidance experiments were performed in two independently separated bright and dark square boxes. Bright areas (20×20×20 cm) were illuminated with 50 W incandescent lamps. Light and dark areas (20×20×20 cm) were spaced 1 cm apart and 2 mm stainless steel rods were installed. […]
as §5, §6

On to `COc1cc2c(cc1OC)C(=O)C(CC1CCN(Cc3ccccc3)CC1)C2` (stereo not shown) [Donepezil], for which the “Familiar object recognition time” value in test [1] was 7.9. In [1], the “New object recognition time” value was 12.9. The “Total object recognition time” value in test [1] was determined as 20.8. Moreover, the “inhibitory effect on tau phosphorylation, in words” value with human Tau [pS199] (SH-SY5Y cells, Aβ42) is listed as “did not show any inhibitory effect”. The “Phosphorus tau pg/g protein” value with human Tau [pS199] (differentiated SH-SY5Y cells, Aβ42 48 hours, extracts 10 μg/ml) worked out at 1699 pg/g protein. Also, the figures for the Retention time (in [2] (retention trial 24 h after acquisition); in the test on Aβ Infusion Model (Aβ42) [7] (retention trial)) were 243.5 and 244.2, respectively. Moreover, the Acquisition time in [2] (time to enter dark area, acquisition trial) is listed as 77.4; in the test on Aβ Infusion Model (Aβ42) [7] (acquisition trial), 78.4. Further, the “spontaneous alternation (%)” value is recorded as 67.2% in test [3] and 70.5% in the test on Aβ Infusion Model (Aβ42) [5]. Besides, the results for the “Total number of entries” value (in [3] (8 minutes); in the test with Aβ Infusion Model (Aβ42) [5] (8 minutes)) were 64 and 61, respectively. The True enter (in test [3] (8 minutes); in the test on Aβ Infusion Model (Aβ42) [5] (8 minutes)) was 43 each time. In addition, in the test on Aβ Infusion Model (Aβ42) [4], the “Total object recognition on time” value is recorded as 26.8. The “effect of promoting NGF production in nerve cell line, in words” value with beta-nerve growth factor (SH-SY5Y cells) was “did not show the effect of promoting NGF production”. Besides, the “NGF (pg/g protein)” value in the test with beta-nerve growth factor (differentiated SH-SY5Y cells) was 421 pg/g protein. Also, the “NeuN expression / neuroprotective effect (FIG. 1), in words” value in test [6] is reported as “failed to show neuroprotective effects”.
